Measured values reported in patent US5922731A, “5-[(heteroaryl)alkyl]-3-oxo-pyrido[1,2-a]benzimidazole-4-carboxamide derivatives useful in treating central nervous system disorders” (Ortho Pharmaceutical Corporation, priority 1997, dated 1999).

Tests used:
[1] = tested on: behavior suppressed by punishment (Rat Conflict); experiment: Suppression of Anxiety in the Adult Male Rat (conflict test); format: in vivo; conditions: ip, minimum effective dose, p<0.05 1-tailed vs vehicle, 3-min test session, read-out: Rat Conflict MED
Procedure: The anxiolytic activity of selected compounds of the invention was assessed by determining their ability to release (disinhibit) behavior that had been suppressed by punishment (Vogel, J. R. et al. Psychopharmacology 1971, 21, 1). Male rats were deprived of water for 48 hrs and were deprived of food for 24 hrs prior to testing. After the first 24 hours of water deprivation, they were placed in the conflict chamber for a training period; wherein, they were allowed 200 unpunished licks from a bottle containing tap water. The experiment was run the next day. At the expected time of peak activity, the animals were placed in the chamber and allowed access to tap water. […] Their first lick initiates a 3-min test session. Subsequently,every 20th lick was punished by a 0.2-s shock delivered via the stainless-steel drinking-tube. Vehicle-treated control animals generally were willing to accept a median number of 3 to 8 shocks per test session. […] The Wilcoxon rank-sum test (Mann-WhitneyU-test) was used to test for an increase (p<0.05, 1-tailed) in the median number of shocks in drug-treated groups, compared to a concurrently run vehicle-treated group. The biological assay is considered to be valid if the effects of a known anxiolytic (positive control) are detected, within the same experiment. A compound was considered active if there is a significant difference in the median number of shocks tolerated between the drug-treated group and the control group. The MED was defined as the minimum dose of the drug-treatment as analyzed using the Wilcoxon rank-sum test (SAS; Statistical Analysis System, version 5.16). If the MED value is greater than 10, an active dose of the compound being tested had not been determined.

[2] = molecular target: benzodiazepine site of the GABA-A receptor; experiment: Benzodiazepine Receptor Binding Assay (inhibition of 3H-flunitrazepam binding); conditions: 3H-flunitrazepam ca. 3 nM; 10-20 min at 25° C.
Procedure: Selected compounds, which were prepared according to the experimental details given in the following examples, were tested for binding to the benzodiazepine site of the GABA-A receptor (Williams, M. et al., J. Pharm. Exper. Therap. 1988, 248, 89). The ability of the compounds of the invention to inhibit the binding of flunitrazepam to prepared receptors was assessed. For each sample, membranes from ca. 10 mg of tissue were incubated in a K2 HPO4 -buffered incubation medium (final concentration=2.0 mL). The concentration of ligand (^3 H-flunitrazepam) was ca. 3 nM. Samples were incubated 10-20 min at 25° C., after which the membrane material and bound ligand was collected on glass fiber filter sheets using vacuum filtration. The collected material was washed with 10 mM HEPES buffered solution, and the radioactivity associated with each sample was measured by liquid scintillation spectrometry. The binding of the test drug to the receptor was determined by comparing the amount of radiolabeled ligand bound in control samples to the amount of ligand bound in the presence of the drug. Concentration-response data were analyzed in a variety of ways. The IC50 was usually calculated by transforming the data to a log-logit format, then performing a linear regression analysis. This procedure provides a Hill coefficient as well as the IC50 value. An IC50 value of over 10,000 for a particular compound would indicate that the compound was not active in this screen. This is a general screen and compounds active here are have potential utility for the treatment of one or more disorders of the central nervous system.

[3] = tested on: metrazol-induced convulsions; experiment: Suppression of Metrazol-Induced Convulsions in Adult Male Mice; format: in vivo, mouse (male CD1); conditions: 0.5 h; mouse, ip; block of clonic convulsions, CD90 dose of metrazol sc, 30 min observation
Procedure: Compounds of the invention were tested for their ability to reduce metrazol-induced convulsions in mice (Swinyard, E. A. J. Am. Pharm Assoc. 1949, 38, 201). Male CD1 mice, were fasted at least 16 hours, were divided into equal groups and test compounds or vehicle were administered parenterally. Water was not withheld except during the period of observations. At the time of suspected peak activity, anti-pentylenetetrazol (anti-metrazol) activity was evaluated by the subcutaneous administration of the CD90 dose of metrazol (the dose of metrazol was determined from the dose-response curve producing clonic convulsions in 90% of animals that received the corresponding vehicle for this experiment). Metrazol was dissolved in 0.9% sodium chloride solution, and its dose volume was 10 mL/kg. Animals were housed individually for observation of clonic convulsions, tonic convulsions and death for a period of 30 min. Test compounds that blocked the clonic seizure component of the convulsion in at least 50% of the animals were considered active. The biological assay was considered to be valid if the effects of a known anticonvulsant (positive control) were detected, within the same experiment. Activity was reported as percent reduction of clonic convulsions from the vehicle group. The ED50 values of active compounds were calculated by the method of probits (Finney, D. J. 1971. Probit Analysis. London: Cambridge University Press) and are listed in Table 1. […] Compounds active in this screen are considered active anticonvulsion/antiepileptic agents.

| IC50 [2] | SMILES | minimal effective dose [1] | ED50 [3] |
| --- | --- | --- | --- |
| 0.59 nM | O=C1CCN2C(=C1C(=O)Nc1ccccc1F)N(Cc1ccco1)c1cc(F)ccc12 [CP# 11] | > 10 mg/kg | < 10 mg/kg |
| 0.29 nM | O=C1CCN2C(=C1C(=O)Nc1ccccc1F)N(Cc1c[nH]cn1)c1cc(F)ccc12 [CP# 12, 7-Fluoro-1,2-dihydro-5-[(4-imidazo)methyl]-3-oxo-N-(2-fluorophenyl)pyrido-[1,2-a]benzimidazole-4-carboxamide] | > 10 mg/kg | 30 mg/kg |
| 5.19 nM | O=C1CCN2C(=C1C(=O)Nc1ccccc1F)N(Cc1ccc[n+]([O-])c1)c1cc(F)ccc12 [CP# 13] | > 10 mg/kg | 3 mg/kg |
| 13.4 nM | O=C1CCN2C(=C1C(=O)Nc1ccccc1F)N(Cc1cc[n+]([O-])cc1)c1cc(F)ccc12 [CP# 14] | > 10 mg/kg | 10 mg/kg |
| 0.89 nM | O=C1CCN2C(=C1C(=O)Nc1ccccc1F)N(CCc1ccccn1)c1cc(F)ccc12 [CP# 15] | 10 mg/kg | 0.3 mg/kg |
| 3.01 nM | O=C1CCN2C(=C1C(=O)Nc1ccccc1F)N(Cc1ccncc1)c1cc(F)ccc12 [CP# 16] | > 10 mg/kg | 3 mg/kg |
| 1.27 nM | O=C1CCN2C(=C1C(=O)Nc1ccccc1F)N(Cc1cccnc1)c1cc(F)ccc12 [CP# 17, 7-Fluoro-1,2-dihydro-5-(3-pyridylmethyl)-3-oxo-N-(2-fluorophenyl)pyrido[1,2-a]benzimidazole-4-carboxamide] | > 10 mg/kg | 1 mg/kg |
| 0.61 nM | O=C1CCN2C(=C1C(=O)Nc1c(F)cccc1F)N(CCc1cccs1)c1cc(F)ccc12 [CP# 18] | > 10 mg/kg | 10 mg/kg |
| 0.71 nM | O=C1CCN2C(=C1C(=O)Nc1ccccc1F)N(Cc1ccsc1)c1cc(F)ccc12 [CP# 19, 7-Fluoro-1,2-dihydro-5-[(3-thienyl)methyl]-3-oxo-N-(2-fluorophenyl)pyrido-[1,2-a]benzimidazole-4-carboxamide] | < 10 mg/kg | 0.7 mg/kg |
| 0.096 nM | O=C1CCN2C(=C1C(=O)Nc1ccccc1F)N(CCc1ccsc1)c1cc(F)ccc12 [CP# 20, 7-Fluoro-1,2-dihydro-5-[2-(3-thienyl)ethyl]3-oxo-N-(2-fluorophenyl)pyrido[1,2-a]benzimidazole-4-carboxamide] | < 10 mg/kg | 0.1 mg/kg |
| 0.3 nM | O=C1CCN2C(=C1C(=O)Nc1ccccc1F)N(Cc1cccs1)c1cc(F)ccc12 [CP# 21, 7-Fluoro-1,2-dihydro-5-[(2-thienyl)methyl]-3-oxo-N-(2-fluorophenyl)pyrido-[1,2-a]benzimidazole-4-carboxamide] | < 10 mg/kg | < 1 mg/kg |
| 2.79 nM | O=C1CCN2C(=C1C(=O)Nc1ccccc1F)N(Cc1ccccn1)c1cc(F)ccc12 [CP# 22] | < 10 mg/kg | < 1 mg/kg |
| 4.24 nM | O=C1CCN2C(=C1C(=O)Nc1c(F)cccc1F)N(Cc1ccsc1)c1cc(F)ccc12 [CP# 23] | > 10 mg/kg | > 10 mg/kg |
| 24.4 nM | O=C1CCN2C(=C1C(=O)Nc1c(F)cccc1F)N(Cc1ccccn1)c1cc(F)ccc12 [CP# 24] | 10 mg/kg | 3 mg/kg |
| 0.22 nM | O=C1CCN2C(=C1C(=O)Nc1c(F)cccc1F)N(CCc1ccsc1)c1cc(F)ccc12 [CP# 25] | < 10 mg/kg | 3 mg/kg |
| 2.98 nM | O=C1CCN2C(=C1C(=O)Nc1c(F)cccc1F)N(Cc1cccs1)c1cc(F)ccc12 [CP# 26] | > 10 mg/kg | < 10 mg/kg |
| 1.26 nM | O=C1CCN2C(=C1C(=O)Nc1c(F)cccc1F)N(Cc1ccco1)c1cc(F)ccc12 [CP# 27] | > 10 mg/kg | 1 mg/kg |
| 3.77 nM | O=C1CCN2C(=C1C(=O)Nc1ccccc1F)N(Cc1ccccn1)c1ccccc12 [CP# 28, 1,2-Dihydro-5-(2-pyridylmethyl)-3-oxo-N-(2-fluorophenyl)pyrido[1,2-a]-benzimidazole-4-carboxamide] | < 10 mg/kg | 0.5 mg/kg |
| 23.9 nM | O=C1CCN2C(=C1C(=O)Nc1c(F)cccc1F)N(Cc1ccccn1)c1ccccc12 [CP# 29] | > 10 mg/kg | 3 mg/kg |
| 4.54 nM | O=C1CCN2C(=C1C(=O)Nc1ccccc1F)N(Cc1cccnc1)c1ccccc12 [CP# 30] | 10 mg/kg | 10 mg/kg |
